From patent US20110245231A1, “ACTIVE SUBSTANCE AND PHARMACEUTICAL COMPOSITION FOR TREATING ALCOHOL DEPENDENCE, AND A METHOD FOR OBTAINING AND THE USE OF SAID ACTIVE SUBSTANCE” (Alla Chem, LLC, priority 2009, published 2011) come the findings set out here.

Each structure is given as a SMILES string.

This assay deals with mice with formed alcohol dependence (male mice of SHK line). The experiment in a line: Alcohol-deprivation effect (ADE): voluntary consumption of 10% alcohol in a 90-minute test before and after 4-day deprivation. It is filed as in vivo. As to conditions: for Alcohol consumption before deprivation: baseline test before deprivation and dosing; for ADE (ADE index): index >0.5 = alcohol dependence. The procedure: Alcohol dependence is determined by the increasing of alcohol consumption induced by short-time deprivation of alcohol. The occurrence and the level of this increasing is a criterion for self-control loss during the period of heavy drinking [Maisky A. I., Salimov R. M. Procedural guidelines for investigation of anti-alcohol medications. The guidebook for experimental (preclinical) investigation of novel pharmacological substances. Ed. Harbiev R. U., publ. “Medicine”, Moscow, 2005, p. 342-356].
For overcoming of the possible first-use gustatory rejection of alcohol solution during the first 6 days of the experiment male mice of SHK line were not given water, they had access only to alcohol solution of increasing concentration (3%—on the first and second days, 6%—on the third and fourth days and 10%—on the fifth and sixth days) [Mc Kinzie et al., Alcohol Clin Exp Res. 1998, 22(7):1584-90]. At that, free access to food was provided. During the next 2 months the animals had free access to pure water, food and 10% solution of alcohol.
For quantitative estimation of alcohol motivation the amount of voluntary alcohol (10% solution) consumption during the 90-minute's test after 4-day's alcohol deprivation was compared with the amount of alcohol consumed during the test carried out before 4-day's alcohol deprivation (alcohol-deprivation effect, ADE). ADE index was calculated as a ratio of alcohol consumption after its withdrawal (grams of pure alcohol per kilogram of body mass) to the total alcohol consumption before and after its withdrawal. The existence of alcohol dependence is determined by the value of ADE index exceeding 0.5, a lower meaning of ADE index corresponds to the absence of alcohol dependence.
At the end of 2-month's period of free access to water and alcohol the above estimation of ADE was carried out, and for further experiments the animals with ADE index exceeding 0.5 were selected. These mice, which had practically identical ADE values, were divided into groups of 9-12 animals.
Sodium γ-hydroxybutyrate was used as a reference drug in the experiments with male mice of SHK line.
Peroral administration once a day for 4 days running

Where [1] appears, read: dose 150 mg/kg peroral once a day for 4 days during deprivation.
[2] abbreviates: dose 2.0 mg/kg peroral once a day for 4 days during deprivation.
Setting [3] is: dose 10.0 mg/kg peroral once a day for 4 days during deprivation.
The mark [4] stands for this setting: dose 10.0 mg/kg peroral once a day for 4 days.
[5] abbreviates: dose 0.5 mg/kg peroral once a day for 4 days during deprivation.
Setting [6] is: dose 3.0 mg/kg peroral once a day for 4 days during deprivation.
Setting [7] is: dose 20.0 mg/kg peroral once a day for 4 days during deprivation.

In the case of `O=C([O-])CCCO.[Na+]` [SHB, sodium γ-hydroxybutyrate], under setting [1], the “Alcohol consumption after deprivation” value was 1.49 ± 1.10 g/kg and the “Alcohol consumption before deprivation” value was 2.36 ± 0.75 g/kg. The “ADE (ADE index)” value (dose 150 mg/kg peroral once a day for 4 days) is 0.45 ± 0.07. Moreover, the “effect on alcohol-deprivation effect, in words” value (reference drug, 150 mg/kg (Table 3)) is given as “significant decreasing of alcohol-deprivation effect”.

`Cl.c1c(C2CCCCC2)cc2c3c(n4c2c1NCC4)CCCC3` [2.2, 5-cyclohexyl-2,3,7,8,9,10-hexahydro-1H-pyrazino[3,2,1-jk]carbazole hydrochloride]: the “alcohol-deprivation effect (increasing of alcohol consumption after 4-days' deprivation), observed or not” value (2 and 10 mg/kg doses) is given as “observed”. For the same compound, the “Alcohol consumption after deprivation” value turned out to be 3.42 ± 1.16 g/kg under setting [2] and 5.05 ± 1.10 g/kg under setting [3]. Moreover, the “Alcohol consumption before deprivation” value runs as follows: under setting [2], 2.61 ± 0.79 g/kg; under setting [3], 2.61 ± 0.75 g/kg. For the same compound, the “ADE (ADE index)” value is, setting by setting: (dose 2.0 mg/kg peroral once a day for 4 days) 0.58 ± 0.08; under setting [4], 0.61 ± 0.07. Besides, under “used alone in doses of 2-10 mg/kg”, the “influence on ADE, in words” value is reported as “does not influence ADE”.

As to `Br.CCSc1nc2ccccc2[nH]1` [1.1, 2-ethylsulfanyl-1H-benzimidazole hydrobromide], the “alcohol-deprivation effect (increasing of alcohol consumption after 4-days' deprivation), observed or not” value (0.5 mg/kg dose) is “observed”. Besides, under “3-20 mg/kg”, the “post-deprivation increasing of alcohol consumption, observed or not” value is given as “not observed”. Besides, the “Alcohol consumption after deprivation” value runs as follows: under setting [5], 4.36 ± 1.10 g/kg; under setting [6], 2.60 ± 1.10 g/kg; under setting [3], 1.59 ± 1.10 g/kg; under setting [7], 1.55 ± 1.10 g/kg. The “Alcohol consumption before deprivation” value is reported as 1.96 ± 0.75 g/kg under setting [5], 3.49 ± 0.75 g/kg under setting [6], 2.79 ± 0.75 g/kg under setting [3] and 2.56 ± 0.75 g/kg under setting [7]. For the same compound, the “ADE (ADE index)” value is, setting by setting: (dose 0.5 mg/kg peroral once a day for 4 days) 0.65 ± 0.07; (dose 3.0 mg/kg peroral once a day for 4 days) 0.46 ± 0.07; under setting [4], 0.39 ± 0.07; (dose 20.0 mg/kg peroral once a day for 4 days) 0.31 ± 0.07. Also, the “dose at which the decrease of alcohol-deprivation effect appears” value (dose-dependent, more noticeable at 20 mg/kg) stood at 3 mg/kg.
